Source: patent publication US6355799B1, “Substituted benzene compounds, process for their preparation, and herbicidal and defoliant compositions containing them” (ISK Americas Incorporated, priority 1997, dated 2002)

Tests used:
Type in all cases: in vivo
[1] = system: velvetleaf (Abutilon theophrasti, ABUTH); assay: Post-emerge test, greenhouse herbicide activity screening; conditions: phytotoxicity rating 0-100 (0 no damage, 100 complete death), 14 days after application
Outline: (§1)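 Sandy loam pots; pre-emerge: sown 1 d pre-spray, surface-watered after, then bottom-watered. Post-emerge: sown 8–21 d before, 2–3 leaf stage, + 0.25% v/v NIS, bottom-watered. Acetone, 187 l/ha track spray, 15–1000 g ai/ha. 0–100 injury score, day 14.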

[2] = system: green foxtail (Setaria viridis, SETVI); assay: as above; conditions: phytotoxicity rating 0-100 (0 no damage, 100 complete death), 14 days after application
Outline: as §1

[3] = system: johnsongrass (Sorghum halepense, SORHA); assay: as above; conditions: phytotoxicity rating 0-100 (0 no damage, 100 complete death), 14 days after application
Outline: as §1

[4] = system: large crabgrass (Digitaria sanguinalis, DIGSA); assay: as above; conditions: phytotoxicity rating 0-100 (0 no damage, 100 complete death), 14 days after application
Outline: as §1

[5] = system: redroot pigweed (Amaranthus retroflexus, AMARE); assay: as above; conditions: phytotoxicity rating 0-100 (0 no damage, 100 complete death), 14 days after application
Outline: as §1

[6] = system: ivyleaf morningglory (Ipomoea hederacea, IPOHE); assay: as above; conditions: phytotoxicity rating 0-100 (0 no damage, 100 complete death), 14 days after application
Outline: as §1

[7] = system: sicklepod (Cassia obtusifolia, CASOB); assay: as above; conditions: phytotoxicity rating 0-100 (0 no damage, 100 complete death), 14 days after application
Outline: as §1

[8] = system: barnyardgrass (Echinochloa crus-galli, ECHCG); assay: as above; conditions: phytotoxicity rating 0-100 (0 no damage, 100 complete death), 14 days after application
Outline: as §1

[9] = system: lambsquarters (Chenopodium album, CHEAL); assay: as above; conditions: phytotoxicity rating 0-100 (0 no damage, 100 complete death), 14 days after application
Outline: as §1

[10] = system: velvetleaf (Abutilon theophrasti, ABUTH); assay: Pre-emerge test, greenhouse herbicide activity screening; conditions: pre-emerge, rated 14 days after application, 0 = no damage, 100 = complete death
Outline: (§2)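 Applied at 15–1000 g ai/ha from acetone in 187 l/ha spray volume. Post-emergence applications included 0.25% v/v non-ionic surfactant and reached plants sown 8–21 days before. Pre-emergence applications were incorporated by surface watering. Efficacy or crop damage was rated on a 0–100 scale after 14 days.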

[11] = system: green foxtail (Setaria viridis, SETVI); assay: as above; conditions: pre-emerge, rated 14 days after application, 0 = no damage, 100 = complete death
Outline: as §2

[12] = system: johnsongrass (Sorghum halepense, SORHA); assay: as above; conditions: pre-emerge, rated 14 days after application, 0 = no damage, 100 = complete death
Outline: as §2

[13] = system: large crabgrass (Digitaria sanguinalis, DIGSA); assay: as above; conditions: pre-emerge, rated 14 days after application, 0 = no damage, 100 = complete death
Outline: as §2

[14] = system: ivyleaf morningglory (Ipomoea hederacea, IPOHE); assay: as above; conditions: pre-emerge, rated 14 days after application, 0 = no damage, 100 = complete death
Outline: as §2

[15] = system: sicklepod (Cassia obtusifolia, CASOB); assay: as above; conditions: pre-emerge, rated 14 days after application, 0 = no damage, 100 = complete death
Outline: as §2

[16] = system: barnyardgrass (Echinochloa crus-galli, ECHCG); assay: as above; conditions: pre-emerge, rated 14 days after application, 0 = no damage, 100 = complete death
Outline: as §2

[17] = system: lambsquarters (Chenopodium album, CHEAL); assay: as above; conditions: pre-emerge, rated 14 days after application, 0 = no damage, 100 = complete death
Outline: as §2

[18] = system: upland rice (Oryza sp., var. Tebonnet, RICE); assay: Pre-emerge test, crop safety; conditions: pre-emerge, rated 14 days after application, 0 = no damage, 100 = complete death
Outline: (§3)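 Plants grown in 10 cm pots of sandy loam mix received acetone-dissolved compounds through a moving flat-fan nozzle. Doses ranged from 15 to 1000 g ai/ha. Pre-emerge pots were seeded one day earlier, post-emerge pots 8–21 days earlier. Fourteen days on, each pot was graded 0–100 for damage.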

[19] = system: field corn (Zea mays L., var. Dekalb 535, CORN); assay: Pre-emerge test, crop safety; conditions: pre-emerge, rated 14 days after application, 0 = no damage, 100 = complete death
Outline: as §3

[20] = system: redroot pigweed (Amaranthus retroflexus, AMARE); assay: Pre-emerge test, greenhouse herbicide activity screening; conditions: pre-emerge, rated 14 days after application, 0 = no damage, 100 = complete death
Outline: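 Herbicidal damage is scored 0 (none) to 100 (complete plant death) two weeks after a simulated field spray. Rates span 15–1000 g ai/ha, delivered in acetone at 187 l/ha. For post-emergence treatments, plants have 2–3 leaves and the spray carries 0.25% v/v non-ionic surfactant.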

[21] = system: upland rice (Oryza sp., var. Tebonnet, RICE); assay: Post-emerge test, crop safety; conditions: phytotoxicity rating 0-100 (0 no damage, 100 complete death), 14 days after application
Outline: as §2

[22] = system: field corn (Zea mays L., var. Dekalb 535, CORN); assay: Post-emerge test, crop safety; conditions: phytotoxicity rating 0-100 (0 no damage, 100 complete death), 14 days after application
Outline: as §2

COc1c(Cl)cc(F)c(-n2c(=O)cc(C(F)(F)F)n(C)c2=O)c1NC(=O)C=C(C)C [2-7]
90: Post-emerge Herbicidal Activity IPOHE ([6]; 250 g ai/ha) | Pre-emerge Herbicidal Activity SORHA (phytotoxicity rating, scale 0-100) ([12]; 63 g ai/ha) | Pre-emerge crop damage RICE (phytotoxicity rating, scale 0-100) ([18]; 250 g ai/ha) | Pre-emerge Herbicidal Activity AMARE (phytotoxicity rating, scale 0-100) ([20]; 63 g ai/ha)
100: Pre-emerge Herbicidal Activity ABUTH (phytotoxicity rating, scale 0-100) ([10]; 63 g ai/ha) | Pre-emerge Herbicidal Activity ABUTH (phytotoxicity rating, scale 0-100) ([10]; 250 g ai/ha) | Pre-emerge Herbicidal Activity SETVI (phytotoxicity rating, scale 0-100) ([11]; 250 g ai/ha) | Pre-emerge Herbicidal Activity DIGSA (phytotoxicity rating, scale 0-100) ([13]; 250 g ai/ha) | Pre-emerge Herbicidal Activity IPOHE (phytotoxicity rating, scale 0-100) ([14]; 250 g ai/ha) | Pre-emerge Herbicidal Activity CASOB (phytotoxicity rating, scale 0-100) ([15]; 250 g ai/ha) | Pre-emerge Herbicidal Activity ECHCG (phytotoxicity rating, scale 0-100) ([16]; 250 g ai/ha) | Pre-emerge Herbicidal Activity CHEAL (phytotoxicity rating, scale 0-100) ([17]; 63 g ai/ha) | Pre-emerge Herbicidal Activity CHEAL (phytotoxicity rating, scale 0-100) ([17]; 250 g ai/ha) | Pre-emerge Herbicidal Activity AMARE (phytotoxicity rating, scale 0-100) ([20]; 250 g ai/ha)
95: Post-emerge Herbicidal Activity ABUTH ([1]; 250 g ai/ha) | Pre-emerge Herbicidal Activity SETVI (phytotoxicity rating, scale 0-100) ([11]; 63 g ai/ha) | Pre-emerge Herbicidal Activity SORHA (phytotoxicity rating, scale 0-100) ([12]; 250 g ai/ha) | Pre-emerge Herbicidal Activity DIGSA (phytotoxicity rating, scale 0-100) ([13]; 63 g ai/ha)
10: Post-emerge Herbicidal Activity AMARE ([5]; 63 g ai/ha) | Pre-emerge crop damage CORN (phytotoxicity rating, scale 0-100) ([19]; 63 g ai/ha) | Post-emerge Herbicidal Activity CORN (crop damage) ([22]; 250 g ai/ha)
60: Pre-emerge Herbicidal Activity CASOB (phytotoxicity rating, scale 0-100) ([15]; 63 g ai/ha) | Pre-emerge crop damage RICE (phytotoxicity rating, scale 0-100) ([18]; 63 g ai/ha)
0: Post-emerge Herbicidal Activity SETVI ([2]; 63 g ai/ha) | Post-emerge Herbicidal Activity SORHA ([3]; 63 g ai/ha) | Post-emerge Herbicidal Activity SORHA ([3]; 250 g ai/ha) | Post-emerge Herbicidal Activity DIGSA ([4]; 63 g ai/ha) | Post-emerge Herbicidal Activity DIGSA ([4]; 250 g ai/ha) | Post-emerge Herbicidal Activity CASOB ([7]; 63 g ai/ha) | Post-emerge Herbicidal Activity ECHCG ([8]; 63 g ai/ha) | Post-emerge Herbicidal Activity ECHCG ([8]; 250 g ai/ha) | Post-emerge Herbicidal Activity CORN (crop damage) ([22]; 63 g ai/ha)
40: Post-emerge Herbicidal Activity CHEAL ([9]; 63 g ai/ha) | Pre-emerge Herbicidal Activity ECHCG (phytotoxicity rating, scale 0-100) ([16]; 63 g ai/ha) | Post-emerge Herbicidal Activity RICE (crop damage) ([21]; 63 g ai/ha) | Post-emerge Herbicidal Activity RICE (crop damage) ([21]; 250 g ai/ha)
70: Post-emerge Herbicidal Activity ABUTH ([1]; 63 g ai/ha) | Pre-emerge Herbicidal Activity IPOHE (phytotoxicity rating, scale 0-100) ([14]; 63 g ai/ha) | Pre-emerge crop damage CORN (phytotoxicity rating, scale 0-100) ([19]; 250 g ai/ha)
50: Post-emerge Herbicidal Activity AMARE ([5]; 250 g ai/ha) | Post-emerge Herbicidal Activity IPOHE ([6]; 63 g ai/ha) | Post-emerge Herbicidal Activity CHEAL ([9]; 250 g ai/ha)
30: Post-emerge Herbicidal Activity SETVI ([2]; 250 g ai/ha) | Post-emerge Herbicidal Activity CASOB ([7]; 250 g ai/ha)

COc1c(Cl)cc(F)c(-n2c(=O)cc(C(F)(F)F)n(C)c2=O)c1N(C(=O)C=C(C)C)C(=O)C=C(C)C [2-8]
15: Pre-emerge crop damage CORN (phytotoxicity rating, scale 0-100) ([19]; 63 g ai/ha) | Pre-emerge crop damage CORN (phytotoxicity rating, scale 0-100) ([19]; 250 g ai/ha)
20: Post-emerge Herbicidal Activity AMARE ([5]; 250 g ai/ha)
90: Pre-emerge Herbicidal Activity SETVI (phytotoxicity rating, scale 0-100) ([11]; 63 g ai/ha) | Pre-emerge Herbicidal Activity SETVI (phytotoxicity rating, scale 0-100) ([11]; 250 g ai/ha)
0: Post-emerge Herbicidal Activity ABUTH ([1]; 63 g ai/ha) | Post-emerge Herbicidal Activity SETVI ([2]; 63 g ai/ha) | Post-emerge Herbicidal Activity SETVI ([2]; 250 g ai/ha) | Post-emerge Herbicidal Activity SORHA ([3]; 63 g ai/ha) | Post-emerge Herbicidal Activity SORHA ([3]; 250 g ai/ha) | Post-emerge Herbicidal Activity DIGSA ([4]; 63 g ai/ha) | Post-emerge Herbicidal Activity DIGSA ([4]; 250 g ai/ha) | Post-emerge Herbicidal Activity AMARE ([5]; 63 g ai/ha) | Post-emerge Herbicidal Activity IPOHE ([6]; 63 g ai/ha) | Post-emerge Herbicidal Activity CASOB ([7]; 63 g ai/ha) | Post-emerge Herbicidal Activity CASOB ([7]; 250 g ai/ha) | Post-emerge Herbicidal Activity ECHCG ([8]; 63 g ai/ha) | Post-emerge Herbicidal Activity ECHCG ([8]; 250 g ai/ha) | Post-emerge Herbicidal Activity CHEAL ([9]; 63 g ai/ha) | Pre-emerge Herbicidal Activity ABUTH (phytotoxicity rating, scale 0-100) ([10]; 63 g ai/ha) | Pre-emerge Herbicidal Activity IPOHE (phytotoxicity rating, scale 0-100) ([14]; 63 g ai/ha) | Pre-emerge Herbicidal Activity CASOB (phytotoxicity rating, scale 0-100) ([15]; 63 g ai/ha) | Pre-emerge Herbicidal Activity CASOB (phytotoxicity rating, scale 0-100) ([15]; 250 g ai/ha) | Pre-emerge Herbicidal Activity ECHCG (phytotoxicity rating, scale 0-100) ([16]; 63 g ai/ha) | Pre-emerge Herbicidal Activity ECHCG (phytotoxicity rating, scale 0-100) ([16]; 250 g ai/ha) | Post-emerge Herbicidal Activity RICE (crop damage) ([21]; 63 g ai/ha) | Post-emerge Herbicidal Activity RICE (crop damage) ([21]; 250 g ai/ha) | Post-emerge Herbicidal Activity CORN (crop damage) ([22]; 63 g ai/ha) | Post-emerge Herbicidal Activity CORN (crop damage) ([22]; 250 g ai/ha)
50: Post-emerge Herbicidal Activity IPOHE ([6]; 250 g ai/ha) | Pre-emerge crop damage RICE (phytotoxicity rating, scale 0-100) ([18]; 63 g ai/ha) | Pre-emerge crop damage RICE (phytotoxicity rating, scale 0-100) ([18]; 250 g ai/ha)
60: Post-emerge Herbicidal Activity CHEAL ([9]; 250 g ai/ha) | Pre-emerge Herbicidal Activity CHEAL (phytotoxicity rating, scale 0-100) ([17]; 63 g ai/ha)
40: Post-emerge Herbicidal Activity ABUTH ([1]; 250 g ai/ha) | Pre-emerge Herbicidal Activity SORHA (phytotoxicity rating, scale 0-100) ([12]; 63 g ai/ha) | Pre-emerge Herbicidal Activity SORHA (phytotoxicity rating, scale 0-100) ([12]; 250 g ai/ha) | Pre-emerge Herbicidal Activity AMARE (phytotoxicity rating, scale 0-100) ([20]; 63 g ai/ha)
80: Pre-emerge Herbicidal Activity DIGSA (phytotoxicity rating, scale 0-100) ([13]; 63 g ai/ha) | Pre-emerge Herbicidal Activity DIGSA (phytotoxicity rating, scale 0-100) ([13]; 250 g ai/ha)
100: Pre-emerge Herbicidal Activity ABUTH (phytotoxicity rating, scale 0-100) ([10]; 250 g ai/ha) | Pre-emerge Herbicidal Activity IPOHE (phytotoxicity rating, scale 0-100) ([14]; 250 g ai/ha) | Pre-emerge Herbicidal Activity CHEAL (phytotoxicity rating, scale 0-100) ([17]; 250 g ai/ha) | Pre-emerge Herbicidal Activity AMARE (phytotoxicity rating, scale 0-100) ([20]; 250 g ai/ha)
